Results published in patent US11667602B2, “Compounds and their use” (AstraZeneca AB, priority 2020, dated 2023).
In brackets after ≈: the same amount, converted by molar mass.

Experiments:
[1] = Human Plasma Protein Binding (Test B); format: in vitro ADME; conditions: fraction unbound (fu)
Procedure, shortened: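 Values given as % free (fu) in human plasma, using the method of Wernevik et al. (2020). For compounds tested more than once, the arithmetic mean is given.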

[2] = Human Liver Microsomal Stability (Test C); format: in vitro ADME; conditions: human, liver microsomes
Procedure, shortened: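 CLint (μl/min/mg protein) derived from compound depletion in human liver microsomes following a published standardized early-DMPK protocol; replicate determinations given as arithmetic mean.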

[3] = Rat Hepatocyte Stability (Test E); format: in vitro ADME; conditions: rat, hepatocytes, geometric mean if run multiple times
Procedure, shortened: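 Intrinsic clearance in rat hepatocytes, expressed as μl/min/10^6 cells, following the literature integrated DMPK panel method. Repeat determinations combined as geometric mean.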

Solubility (Test F) = format: physicochemical; conditions: arithmetic mean if run multiple times
Method: The assay was conducted according to the Solubility Assay described in pages 164-167 of Wernevik, J. et al., “A Fully Integrated Assay Panel for Early Drug Metabolism and Pharmacokinetics Profiling”, Assay and Drug Development Technologies, 2020, 18(4), 157-179. Data are reported in Table 36 as solubility ([…]. Where the assay was run multiple times for the same compound, the arithmetic mean is reported.

human RXFP1 = molecular target: T1, human RXFP1 (Homo sapiens, UniProt Q9HBX9); test: RXFP1 Hu cAMP (Test A); format: cell-based; design: expressed in transfected cells; host or cells: Jump-In T-REx CHO-K1 cells (ThermoFisher), induced with 10 ng/ml doxycycline for 24 h; conditions: RXFP1 Hu cAMP; for EC50: read-out: Test A EC50
T1 sequence (Q9HBX9 1-757): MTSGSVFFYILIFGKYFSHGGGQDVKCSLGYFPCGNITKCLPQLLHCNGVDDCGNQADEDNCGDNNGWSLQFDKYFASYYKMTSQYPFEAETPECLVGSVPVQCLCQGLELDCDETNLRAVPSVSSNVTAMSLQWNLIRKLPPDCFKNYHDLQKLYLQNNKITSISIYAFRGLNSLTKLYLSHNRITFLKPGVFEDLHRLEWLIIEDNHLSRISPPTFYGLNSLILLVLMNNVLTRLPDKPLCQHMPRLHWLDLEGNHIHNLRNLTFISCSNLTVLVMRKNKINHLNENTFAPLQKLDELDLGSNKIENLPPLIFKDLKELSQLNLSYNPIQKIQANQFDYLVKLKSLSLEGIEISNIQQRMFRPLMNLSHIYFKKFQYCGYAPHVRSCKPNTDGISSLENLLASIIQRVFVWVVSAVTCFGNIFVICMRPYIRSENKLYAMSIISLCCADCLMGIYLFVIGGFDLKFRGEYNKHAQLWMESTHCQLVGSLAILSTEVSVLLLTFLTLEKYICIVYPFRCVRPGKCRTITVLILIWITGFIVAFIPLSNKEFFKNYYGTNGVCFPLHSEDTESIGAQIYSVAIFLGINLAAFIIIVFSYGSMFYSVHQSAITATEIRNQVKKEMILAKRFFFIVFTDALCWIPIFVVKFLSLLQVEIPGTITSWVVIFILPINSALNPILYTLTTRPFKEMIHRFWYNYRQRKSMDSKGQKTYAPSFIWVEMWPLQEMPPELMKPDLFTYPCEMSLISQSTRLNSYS
Procedure, shortened: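 CHO-K1 (Jump-In T-REx), RXFP1 induced w/ 10 ng/ml doxycycline 24 h, cryopreserved. 0.5 mM IBMX final. cAMP by HTRF, 2 h RT, std curve.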

SMILES	Test B Human Plasma Protein Binding (% free) [1] [% free]	microsomal CLint [2] [µL/min/mg]	hepatocyte CLint [3] [µL/min/1e6 cells]	solubility (Solubility (Test F)) [µM]	Test A Sinf (human RXFP1) [%]	EC50 (human RXFP1) [µM]
COc1cc(C#N)c(O[C@H]2CC[C@@](C)(C(=O)O)CC2)cc1C(=O)N[C@@H]1[C@H]2CC[C@H](C2)[C@@H]1C(=O)NCC1CC(C)(C)C1 [Example 87]	6.7	20	24	690 (≈ 390 µg/mL)	109	0.11
CCC(CC)CNC(=O)[C@H]1[C@@H]2CC[C@@H](C2)[C@H]1NC(=O)c1cc(O[C@H]2CC[C@@](C)(C(=O)O)CC2)c(C#N)cc1OC [Example 88]	4.4	40	26	610 (≈ 338 µg/mL)	124	0.033
COc1cc(C#N)c(O[C@H]2CC[C@@](C)(C(=O)O)CC2)cc1C(=O)N[C@@H]1[C@H]2CC[C@H](C2)[C@@H]1C(=O)NC[C@H](F)CO [Example 89]	50	< 3	17	780 (≈ 426 µg/mL)	–	> 5
CCCCNC(=O)[C@H]1[C@@H]2CC[C@@H](C2)[C@H]1NC(=O)c1cc(O[C@H]2CC[C@@](C)(C(=O)O)CC2)c(C#N)cc1OC [Example 91]	5.9	20	59	830 (≈ 436 µg/mL)	114	0.27
COc1cc(C#N)c(O[C@H]2CC[C@@](C)(C(=O)O)CC2)cc1C(=O)N[C@@H]1[C@H]2CC[C@H](C2)[C@@H]1C(=O)NCC1(F)CCCC1 [Example 92]	12	8.4	32	920 (≈ 524 µg/mL)	122	0.14
COc1cc(C#N)c(O[C@H]2CC[C@@](C)(C(=O)O)CC2)cc1C(=O)N[C@@H]1[C@H]2CC[C@H](C2)[C@@H]1C(=O)NCC1(C#N)CCC1 [Example 93]	24	< 3	16	920 (≈ 518 µg/mL)	103	0.37
COc1cc(C#N)c(O[C@H]2CC[C@@](C)(C(=O)O)CC2)cc1C(=O)N[C@@H]1[C@H]2CC[C@H](C2)[C@@H]1C(=O)NCC1(F)CCC1 [Example 94]	14	9	32	830 (≈ 461 µg/mL)	111	> 0.71
COc1cc(C#N)c(O[C@H]2CC[C@@](C)(C(=O)O)CC2)cc1C(=O)N[C@@H]1[C@H]2CC[C@H](C2)[C@@H]1C(=O)NCC1(CF)CC1 [Example 95]	18	4.4	21	880 (≈ 489 µg/mL)	123	0.48
COc1cc(C#N)c(O[C@H]2CC[C@@](C)(C(=O)O)CC2)cc1C(=O)N[C@@H]1[C@H]2CC[C@H](C2)[C@@H]1C(=O)NCC(C)(F)F [Example 96]	26	< 3	24	890 (≈ 487 µg/mL)	97	0.44
COc1cc(C#N)c(O[C@H]2CC[C@@](C)(C(=O)O)CC2)cc1C(=O)N[C@@H]1[C@H]2CC[C@H](C2)[C@@H]1C(=O)NC1(C)CC1 [Example 100]	30	< 3	9.6	920 (≈ 482 µg/mL)	100	> 4.6
COc1cc(C#N)c(O[C@H]2CC[C@@](C)(C(=O)O)CC2)cc1C(=O)N[C@@H]1[C@H]2CC[C@H](C2)[C@@H]1C(=O)NCC1(O)CCC(F)(F)CC1 [Example 101]	20	< 3	28	990 (≈ 612 µg/mL)	100	> 3.5
COc1cc(C#N)c(O[C@H]2CC[C@@](C)(C(=O)O)CC2)cc1C(=O)N[C@@H]1[C@H]2CC[C@H](C2)[C@@H]1C(=O)NCC1(O)CCCCCC1 [Example 103]	10	11	38	860 (≈ 512 µg/mL)	–	> 5
CCOCC1(CNC(=O)[C@H]2[C@@H]3CC[C@@H](C3)[C@H]2NC(=O)c2cc(O[C@H]3CC[C@@](C)(C(=O)O)CC3)c(C#N)cc2OC)CCC1 [Example 104]	6.4	59	28	920 (≈ 548 µg/mL)	122	0.27
COc1cc(C#N)c(O[C@H]2CC[C@@](C)(C(=O)O)CC2)cc1C(=O)N[C@@H]1[C@H]2CC[C@H](C2)[C@@H]1C(=O)NCC1(C)CCCCCC1 [Example 105]	2.5	> 300	48	220 (≈ 131 µg/mL)	125	0.0048
COc1cc(C#N)c(O[C@H]2CC[C@@](C)(C(=O)O)CC2)cc1C(=O)N[C@@H]1[C@H]2CC[C@H](C2)[C@@H]1C(=O)NCC1(CC(C)C)CCC1 [Example 106]	1.7	> 300	29	170 (≈ 101 µg/mL)	112	0.0097
COc1cc(C#N)c(O[C@H]2CC[C@@](C)(C(=O)O)CC2)cc1C(=O)N[C@@H]1[C@H]2CC[C@H](C2)[C@@H]1C(=O)NCC1CCC(C#N)CC1 (some centres unmarked) [Example 107]	26	7.9	34	1000 (≈ 591 µg/mL)	112	8.3
COc1cc(C#N)c(O[C@H]2CC[C@@](C)(C(=O)O)CC2)cc1C(=O)N[C@@H]1[C@H]2CC[C@H](C2)[C@@H]1C(=O)NCC1(CO)CCCC1 [Example 109]	17	11	26	810 (≈ 471 µg/mL)	103	0.25
COc1cc(C#N)c(O[C@H]2CC[C@@](C)(C(=O)O)CC2)cc1C(=O)N[C@@H]1[C@H]2CC[C@H](C2)[C@@H]1C(=O)NCC1(F)CCOCC1 [Example 110]	44	< 3	19	950 (≈ 556 µg/mL)	102	0.74
COc1cc(C#N)c(O[C@H]2CC[C@@](C)(C(=O)O)CC2)cc1C(=O)N[C@@H]1[C@H]2CC[C@H](C2)[C@@H]1C(=O)NCC1(OC)CC1 [Example 111]	31	< 3	18	860 (≈ 476 µg/mL)	100	0.68
COc1cc(C#N)c(O[C@H]2CC[C@@](C)(C(=O)O)CC2)cc1C(=O)N[C@@H]1[C@H]2CC[C@H](C2)[C@@H]1C(=O)NC1(C2CC2)CC1 [Example 112]	16	6.8	17	830 (≈ 456 µg/mL)	95	0.47
COc1cc(C#N)c(O[C@H]2CC[C@@](C)(C(=O)O)CC2)cc1C(=O)N[C@@H]1[C@H]2CC[C@H](C2)[C@@H]1C(=O)N[C@]12CC3CC(C[C@@](O)(C3)C1)C2 [Example 113]	28	11	30	950 (≈ 589 µg/mL)	–	> 9.4
COc1cc(C#N)c(O[C@H]2CC[C@@](C)(C(=O)O)CC2)cc1C(=O)N[C@@H]1[C@H]2CC[C@H](C2)[C@@H]1C(=O)NCc1nccc(C(F)F)n1 [Example 114]	17	17	94	810 (≈ 495 µg/mL)	–	> 9.4
